Results: ChEMBL document CHEMBL1201862, “PubChem BioAssay data set” (2004)
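Interpolation was linear, between the two tested concentrations surrounding the appropriate level; five concentrations were tested over 48 hours in 96-well plates. Abbreviation: GI50, concentration required for 50% inhibition of growth.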 Calls of active or inactive are those of the source. Rule as the data show it: active = GI50 up to about 1.1 µM and inactive = higher.

Key:
Experiment in all cases: NCI tumour cell line growth inhibition, 48 h
RXF 631 = test system: RXF 631
HCT-116 = test system: HCT-116
M14 = test system: M14
SF-295 = test system: SF-295
HL-60 = test system: HL-60
TK-10 = test system: TK-10
M19-MEL = test system: M19-MEL
EKVX = test system: EKVX
SF-268 = test system: SF-268
Malme-3M = test system: Malme-3M
SNB-19 = test system: SNB-19
LXFL 529 = test system: LXFL 529
MOLT-4 = test system: MOLT-4
NCI-H522 = test system: NCI-H522
RXF 393 = test system: RXF 393
SW-620 = test system: SW-620
SNB-78 = test system: SNB-78
K562 = test system: K562
U-251 = test system: U-251
XF498 = test system: XF498
DLD-1 = test system: DLD-1
COLO 205 = test system: COLO 205
UO-31 = test system: UO-31
RPMI-8226 = test system: RPMI-8226
786-0 = test system: 786-0
HOP-62 = test system: HOP-62
OVCAR-4 = test system: OVCAR-4
KM-20L2 = test system: KM-20L2
CCRF-CEM = test system: CCRF-CEM
HCT-15 = test system: HCT-15
OVCAR-5 = test system: OVCAR-5
HOP-92 = test system: HOP-92
HT-29 = test system: HT-29
SK-MEL-28 = test system: SK-MEL-28
ACHN = test system: ACHN
UACC-62 = test system: UACC-62
SN12C = test system: SN12C
UACC-257 = test system: UACC-257
SK-MEL-5 = test system: SK-MEL-5
DMS-273 = test system: DMS-273
HCC 2998 = test system: HCC 2998
IGROV-1 = test system: IGROV-1
NCI-H23 = test system: NCI-H23
OVCAR-3 = test system: OVCAR-3
A549 = test system: A549
LOX IMVI = test system: LOX IMVI
OVCAR-8 = test system: OVCAR-8
SF-539 = test system: SF-539
NCI-H460 = test system: NCI-H460
SK-MEL-2 = test system: SK-MEL-2
KM12 = test system: KM12
SK-OV-3 = test system: SK-OV-3
SR = test system: SR
HOP-18 = test system: HOP-18
CAKI-1 = test system: CAKI-1
NCI-H226 = test system: NCI-H226
SNB-75 = test system: SNB-75
A498 = test system: A498

With O=C(c1ccc(NCN2C(=O)CCC2=O)cc1)c1ccc(NCN2C(=O)CCC2=O)cc1 as the molecule, how does the GI50 (RXF 631) read?
Its GI50 is > 100 µM (inactive).

And the GI50 (HCT-116)?
Its GI50 is > 100 µM (inactive).

And the GI50 (M14)?
The GI50 was > 100 µM (inactive).

And the GI50 (SF-295)?
Its GI50 is > 100 µM (inactive).

What about the GI50 (HL-60) of the same molecule?
Its GI50 is 18.9 µM (inactive).

What about the GI50 (TK-10) of the same molecule?
Its GI50 is > 100 µM (inactive).

And the GI50 (M19-MEL)?
The GI50 was > 100 µM (inactive).

And the GI50 (EKVX)?
The GI50 was > 100 µM (inactive).

And the GI50 (SF-268)?
The GI50 was > 100 µM (inactive).

What about the GI50 (Malme-3M) of the same molecule?
Its GI50 is > 100 µM (inactive).

And the GI50 (SNB-19)?
Its GI50 is > 100 µM (inactive).

What about the GI50 (LXFL 529) of the same molecule?
Its GI50 is > 100 µM (inactive).

And the GI50 (MOLT-4)?
The GI50 was > 100 µM (inactive).

And the GI50 (NCI-H522)?
Its GI50 is > 100 µM (inactive).

And the GI50 (RXF 393)?
Its GI50 is > 100 µM (inactive).

What about the GI50 (SW-620) of the same molecule?
The GI50 was 58.5 µM (inactive).

And the GI50 (SNB-78)?
Its GI50 is > 100 µM (inactive).

What about the GI50 (K562) of the same molecule?
Its GI50 is 67.3 µM (inactive).

What about the GI50 (U-251) of the same molecule?
Its GI50 is > 100 µM (inactive).

And the GI50 (XF498)?
Its GI50 is > 100 µM (inactive).

What about the GI50 (DLD-1) of the same molecule?
The GI50 was > 100 µM (inactive).

What about the GI50 (COLO 205) of the same molecule?
The GI50 was > 100 µM (inactive).

What about the GI50 (UO-31) of the same molecule?
The GI50 was > 100 µM (inactive).

What about the GI50 (RPMI-8226) of the same molecule?
The GI50 was 20.4 µM (inactive).

What about the GI50 (786-0) of the same molecule?
The GI50 was > 100 µM (inactive).

What about the GI50 (HOP-62) of the same molecule?
The GI50 was > 100 µM (inactive).

And the GI50 (OVCAR-4)?
Its GI50 is > 100 µM (inactive).

What about the GI50 (KM-20L2) of the same molecule?
Its GI50 is > 100 µM (inactive).

And the GI50 (CCRF-CEM)?
Its GI50 is > 100 µM (inactive).

And the GI50 (HCT-15)?
The GI50 was 45.2 µM.

What about the GI50 (OVCAR-5) of the same molecule?
The GI50 was > 100 µM (inactive).

And the GI50 (HOP-92)?
Its GI50 is > 100 µM (inactive).

What about the GI50 (HT-29) of the same molecule?
Its GI50 is > 100 µM (inactive).

What about the GI50 (SK-MEL-28) of the same molecule?
Its GI50 is > 100 µM (inactive).

What about the GI50 (ACHN) of the same molecule?
Its GI50 is > 100 µM (inactive).

What about the GI50 (UACC-62) of the same molecule?
Its GI50 is > 100 µM (inactive).

And the GI50 (SN12C)?
Its GI50 is > 100 µM (inactive).

What about the GI50 (UACC-257) of the same molecule?
Its GI50 is 27.7 µM (inactive).

What about the GI50 (SK-MEL-5) of the same molecule?
Its GI50 is > 100 µM (inactive).

What about the GI50 (DMS-273) of the same molecule?
Its GI50 is 49.8 µM (inactive).

And the GI50 (HCC 2998)?
The GI50 was > 100 µM (inactive).

And the GI50 (IGROV-1)?
Its GI50 is > 100 µM (inactive).

What about the GI50 (NCI-H23) of the same molecule?
Its GI50 is > 100 µM (inactive).

And the GI50 (OVCAR-3)?
Its GI50 is > 100 µM (inactive).

What about the GI50 (A549) of the same molecule?
The GI50 was > 100 µM (inactive).

And the GI50 (LOX IMVI)?
Its GI50 is > 100 µM (inactive).

And the GI50 (OVCAR-8)?
The GI50 was > 100 µM (inactive).

And the GI50 (SF-539)?
The GI50 was > 100 µM (inactive).

And the GI50 (NCI-H460)?
The GI50 was > 100 µM (inactive).

What about the GI50 (SK-MEL-2) of the same molecule?
Its GI50 is > 100 µM (inactive).

What about the GI50 (KM12) of the same molecule?
Its GI50 is > 100 µM (inactive).

Which results are given for CN/N=C(\C)c1c(O)cc(C)oc1=O?
GI50 (RXF 631): > 100 µM (inactive); GI50 (SK-OV-3): > 100 µM (inactive); GI50 (HCT-116): > 100 µM (inactive); GI50 (M14): > 100 µM (inactive); GI50 (SF-295): > 100 µM (inactive); GI50 (HL-60): > 100 µM (inactive); GI50 (TK-10): > 100 µM (inactive); GI50 (M19-MEL): > 100 µM (inactive); GI50 (EKVX): > 100 µM (inactive); GI50 (SF-268): > 100 µM (inactive); GI50 (Malme-3M): > 100 µM (inactive); GI50 (SNB-19): > 100 µM (inactive); GI50 (LXFL 529): > 100 µM (inactive); GI50 (MOLT-4): > 100 µM (inactive); GI50 (NCI-H522): > 100 µM (inactive); GI50 (SW-620): > 100 µM (inactive); GI50 (SR): > 100 µM (inactive); GI50 (HOP-18): > 100 µM (inactive); GI50 (K562): > 100 µM (inactive); GI50 (U-251): > 100 µM (inactive); GI50 (DLD-1): > 100 µM (inactive); GI50 (CAKI-1): > 100 µM (inactive); GI50 (UO-31): > 100 µM (inactive); GI50 (786-0): > 100 µM (inactive); GI50 (HOP-62): > 100 µM (inactive); GI50 (OVCAR-4): > 100 µM (inactive); GI50 (KM-20L2): > 100 µM (inactive); GI50 (NCI-H226): > 100 µM (inactive); GI50 (SNB-75): > 100 µM (inactive); GI50 (CCRF-CEM): > 100 µM (inactive); GI50 (HCT-15): > 100 µM; GI50 (HOP-92): > 100 µM (inactive); GI50 (HT-29): > 100 µM (inactive); GI50 (SK-MEL-28): > 100 µM (inactive); GI50 (A498): > 100 µM (inactive); GI50 (ACHN): > 100 µM (inactive); GI50 (UACC-62): > 100 µM (inactive); GI50 (SN12C): > 100 µM (inactive); GI50 (UACC-257): > 100 µM (inactive); GI50 (HCC 2998): > 100 µM (inactive); GI50 (NCI-H23): > 100 µM (inactive); GI50 (A549): > 100 µM (inactive); GI50 (LOX IMVI): > 100 µM (inactive); GI50 (OVCAR-8): > 100 µM (inactive); GI50 (SF-539): > 100 µM (inactive); GI50 (NCI-H460): > 100 µM (inactive); GI50 (SK-MEL-2): > 100 µM (inactive); GI50 (KM12): > 100 µM (inactive)
